Data taken from paper PMC11822212, “High-throughput screening identifies Aurora kinase B as a critical therapeutic target for Merkel cell carcinoma” (Nature Communications, 2025).
Like-named read-outs stand apart in the source and are kept apart here.

How the values were obtained:
[1] = system: MCC cell lines (WAGA, MKL-1, MKL-2, MCC13, MCC26, UISO); assay: qHTS cell viability, all six MCC cell lines as a group (mean AUC, MCC.avg); assay type: cell-based, human
MCC26 cells (VN-MCC) = assay: qHTS cell viability (CellTiter-Glo, 72 h; primary and follow-up small molecule screen); assay type: cell-based, human
WAGA cells (VP-MCC) = assay: as above; assay type: cell-based, human
UISO cells (VN-MCC) = assay: as above; assay type: cell-based, human
[2] = system: VN-MCC cell lines (MCC13, MCC26, UISO); assay: qHTS cell viability, VN-MCC cell lines as a group (mean AUC, VN.MCC.avg); assay type: cell-based, human
[3] = system: VP-MCC cell lines (WAGA, MKL-1, MKL-2); assay: qHTS cell viability, VP-MCC cell lines as a group (mean AUC, VP.MCC.avg); assay type: cell-based, human
HACAT cells = assay: qHTS cell viability (CellTiter-Glo, 72 h; primary screen), control cell line; assay type: cell-based, human
CRL-7250 cells = assay: as above; assay type: cell-based
[4] = system: control cell lines (HACAT, HEK293T, CRL-7250, NIH-3T3); assay: qHTS cell viability, control cell lines as a group (mean AUC, Control.avg); assay type: cell-based
HEK293T cells = assay: qHTS cell viability (CellTiter-Glo, 72 h; primary screen), control cell line; assay type: cell-based, human
MCC13 cells (VN-MCC) = assay: qHTS cell viability (CellTiter-Glo, 72 h; primary and follow-up small molecule screen); assay type: cell-based, human
NIH-3T3 cells = assay: qHTS cell viability (CellTiter-Glo, 72 h; primary screen), control cell line; assay type: cell-based, mouse
MKL-2 cells (VP-MCC) = assay: qHTS cell viability (CellTiter-Glo, 72 h; primary and follow-up small molecule screen); assay type: cell-based, human
MKL-1 cells (VP-MCC) = assay: as above; assay type: cell-based, human
[5] = system: six MCC cell lines and four control cell lines; assay: qHTS cell viability, all 10 cell lines screened; assay type: cell-based

With `CC(C)(C)CC(C)(C)c1ccc(OCCOCC[N+](C)(C)Cc2ccccc2)cc1` [Benzethonium chloride] the MCC_Avg_AUC [1] was 398.298, the “Area under the dose-response curve (AUC) MCC26 Replicate 1” value (MCC26 cells (VN-MCC)) was 408.1 and the “Area under the dose-response curve (AUC) MCC26 Replicate 2” value (MCC26 cells (VN-MCC)) was 395.1. The “Area under the dose-response curve (AUC) MCC26 Replicate 3” value (MCC26 cells (VN-MCC)) was 422.7, the MCC26_AUC (MCC26 cells (VN-MCC)) was 468.704 and the “Area under the dose-response curve (AUC) WAGA Replicate 1” value (WAGA cells (VP-MCC)) was 389.4. For the same compound, the “Area under the dose-response curve (AUC) WAGA Replicate 2” value (WAGA cells (VP-MCC)) was 374.6, the “Area under the dose-response curve (AUC) WAGA Replicate 3” value (WAGA cells (VP-MCC)) was 382.0 and the WAGA_AUC (WAGA cells (VP-MCC)) was 367.918. The “Area under the dose-response curve (AUC) UISO Replicate 1” value (UISO cells (VN-MCC)) was 363.2, the “Area under the dose-response curve (AUC) UISO Replicate 2” value (UISO cells (VN-MCC)) was 392.4 and the “Area under the dose-response curve (AUC) UISO Replicate 3” value (UISO cells (VN-MCC)) was 362.8. It also gave a UISO_AUC (UISO cells (VN-MCC)) of 402.239, a Control-VN-MCC [2] of -24.3368 and a VN-MCC_Avg_AUC [2] of 447.14. It also gave a Control-VP-MCC [3] of 73.3469, a VP-MCC_Avg_AUC [3] of 349.456 and an HACAT_AUC (HACAT cells) of 436.332. For the same compound, the CRL7250_AUC (CRL-7250 cells) was 423.584, the Control_Avg_AUC [4] was 422.803 and the HEK293T_AUC (HEK293T cells) was 369.337. For the same compound, the “Area under the dose-response curve (AUC) MCC13 Replicate 1” value (MCC13 cells (VN-MCC)) was 446.4, the “Area under the dose-response curve (AUC) MCC13 Replicate 2” value (MCC13 cells (VN-MCC)) was 458.8 and the “Area under the dose-response curve (AUC) MCC13 Replicate 3” value (MCC13 cells (VN-MCC)) was 480.2. The MCC13_AUC (MCC13 cells (VN-MCC)) was 470.477, the NIH3T3_AUC (NIH-3T3 cells) was 461.959 and the “Area under the dose-response curve (AUC) MKL-2 Replicate 1” value (MKL-2 cells (VP-MCC)) was 357.2. For the same compound, the “Area under the dose-response curve (AUC) MKL-2 Replicate 2” value (MKL-2 cells (VP-MCC)) was 340.8, the “Area under the dose-response curve (AUC) MKL-2 Replicate 3” value (MKL-2 cells (VP-MCC)) was 365.0 and the MKL2_AUC (MKL-2 cells (VP-MCC)) was 335.827. For the same compound, the “Area under the dose-response curve (AUC) MKL-1 Replicate 1” value (MKL-1 cells (VP-MCC)) was 338.0, the “Area under the dose-response curve (AUC) MKL-1 Replicate 2” value (MKL-1 cells (VP-MCC)) was 346.5 and the “Area under the dose-response curve (AUC) MKL-1 Replicate 3” value (MKL-1 cells (VP-MCC)) was 373.3. The MKL1_AUC (MKL-1 cells (VP-MCC)) was 344.624 and the Control-MCC [5] was 24.505.

`CCC(=O)O[C@@H]1C=C2CCC3C(CCC4(C)C3CC[C@@H]4OC(=O)CC)C2CC1` (stereo partly shown) [Bolandiol dipropionate] showed an MCC_Avg_AUC [1] of 449.182, an MCC26_AUC (MCC26 cells (VN-MCC)) of 482.222 and a WAGA_AUC (WAGA cells (VP-MCC)) of 383.532. The UISO_AUC (UISO cells (VN-MCC)) was 526.911, the Control-VN-MCC [2] was -24.2823 and the VN-MCC_Avg_AUC [2] was 496.011. For the same compound, the Control-VP-MCC [3] was 69.3739, the VP-MCC_Avg_AUC [3] was 402.354 and the HACAT_AUC (HACAT cells) was 443.174. For the same compound, the CRL7250_AUC (CRL-7250 cells) was 480.859, the Control_Avg_AUC [4] was 471.728 and the HEK293T_AUC (HEK293T cells) was 471.071. For the same compound, the MCC13_AUC (MCC13 cells (VN-MCC)) was 478.899, the NIH3T3_AUC (NIH-3T3 cells) was 491.81 and the MKL2_AUC (MKL-2 cells (VP-MCC)) was 411.71. It also gave an MKL1_AUC (MKL-1 cells (VP-MCC)) of 411.821 and a Control-MCC [5] of 22.5458.

For `O=C(CCCN1CCC(O)(c2ccc(Br)cc2)CC1)c1ccc(F)cc1` [Bromperidol], the MCC_Avg_AUC ([1]; NPC library, mean AUC of six MCC cell lines) was 305.111, the MCC26_AUC (MCC26 cells (VN-MCC); NPC library, qHTS dose-response AUC, MCC26) was 508.837 and the MCC26_AUC (MCC26 cells (VN-MCC); area under the dose-response curve, MCC26 cells, AUC<450 = reduced viability) was 508.837. For the same compound, the “Area under the dose-response curve (AUC) MCC26 Replicate 1” value (MCC26 cells (VN-MCC); follow-up screen, MCC26, replicate 1) was 451.5, the “Area under the dose-response curve (AUC) MCC26 Replicate 2” value (MCC26 cells (VN-MCC); follow-up screen, MCC26, replicate 2) was 430.2 and the “Area under the dose-response curve (AUC) MCC26 Replicate 3” value (MCC26 cells (VN-MCC); follow-up screen, MCC26, replicate 3) was 459.8. For the same compound, the WAGA_AUC (WAGA cells (VP-MCC); NPC library, qHTS dose-response AUC, WAGA) was 81.0002, the WAGA_AUC (WAGA cells (VP-MCC); area under the dose-response curve, WAGA cells, AUC<450 = reduced viability) was 81.0002 and the “Area under the dose-response curve (AUC) WAGA Replicate 1” value (WAGA cells (VP-MCC); follow-up screen, WAGA, replicate 1) was 490.2. The “Area under the dose-response curve (AUC) WAGA Replicate 2” value (WAGA cells (VP-MCC); follow-up screen, WAGA, replicate 2) was 473.6, the “Area under the dose-response curve (AUC) WAGA Replicate 3” value (WAGA cells (VP-MCC); follow-up screen, WAGA, replicate 3) was 491.6 and the UISO_AUC (UISO cells (VN-MCC); NPC library, qHTS dose-response AUC, UISO) was 465.264. For the same compound, the UISO_AUC (UISO cells (VN-MCC); area under the dose-response curve, UISO cells, AUC<450 = reduced viability) was 465.264, the “Area under the dose-response curve (AUC) UISO Replicate 1” value (UISO cells (VN-MCC); follow-up screen, UISO, replicate 1) was 462.9 and the “Area under the dose-response curve (AUC) UISO Replicate 2” value (UISO cells (VN-MCC); follow-up screen, UISO, replicate 2) was 471.4. The “Area under the dose-response curve (AUC) UISO Replicate 3” value (UISO cells (VN-MCC); follow-up screen, UISO, replicate 3) was 450.6, the VN-MCC_Avg_AUC ([2]; NPC library, mean AUC of VN-MCC cell lines) was 488.845 and the Control-VN-MCC ([2]; NPC library, therapeutic window: Control avg AUC minus VN-MCC avg AUC) was -22.1834. The VP-MCC_Avg_AUC ([3]; NPC library, mean AUC of VP-MCC cell lines) was 121.377, the Control-VP-MCC ([3]; NPC library, therapeutic window: Control avg AUC minus VP-MCC avg AUC) was 345.285 and the HACAT_AUC (HACAT cells; NPC library, qHTS dose-response AUC, HACAT control) was 453.423. It also gave an HACAT_AUC (HACAT cells; area under the dose-response curve, HACAT control cells, AUC<450 = reduced viability) of 453.423, a CRL7250_AUC (CRL-7250 cells; NPC library, qHTS dose-response AUC, CRL7250 control) of 469.585 and a CRL7250_AUC (CRL-7250 cells; area under the dose-response curve, CRL7250 control cells, AUC<450 = reduced viability) of 469.584. The Control_Avg_AUC ([4]; NPC library, mean AUC of control cell lines) was 466.662, the HEK293T_AUC (HEK293T cells; NPC library, qHTS dose-response AUC, HEK293T control) was 458.67 and the HEK293T_AUC (HEK293T cells; area under the dose-response curve, HEK293T control cells, AUC<450 = reduced viability) was 458.67. The MCC13_AUC (MCC13 cells (VN-MCC); NPC library, qHTS dose-response AUC, MCC13) was 492.435, the MCC13_AUC (MCC13 cells (VN-MCC); area under the dose-response curve, MCC13 cells, AUC<450 = reduced viability) was 492.435 and the “Area under the dose-response curve (AUC) MCC13 Replicate 1” value (MCC13 cells (VN-MCC); follow-up screen, MCC13, replicate 1) was 481.5. For the same compound, the “Area under the dose-response curve (AUC) MCC13 Replicate 2” value (MCC13 cells (VN-MCC); follow-up screen, MCC13, replicate 2) was 447.1, the “Area under the dose-response curve (AUC) MCC13 Replicate 3” value (MCC13 cells (VN-MCC); follow-up screen, MCC13, replicate 3) was 475.2 and the NIH3T3_AUC (NIH-3T3 cells; NPC library, qHTS dose-response AUC, NIH3T3 control) was 484.97. For the same compound, the NIH3T3_AUC (NIH-3T3 cells; area under the dose-response curve, NIH3T3 control cells, AUC<450 = reduced viability) was 484.97, the MKL2_AUC (MKL-2 cells (VP-MCC); NPC library, qHTS dose-response AUC, MKL2) was 116.273 and the MKL2_AUC (MKL-2 cells (VP-MCC); area under the dose-response curve, MKL-2 cells, AUC<450 = reduced viability) was 116.273. The “Area under the dose-response curve (AUC) MKL-2 Replicate 1” value (MKL-2 cells (VP-MCC); follow-up screen, MKL-2, replicate 1) was 432.2, the “Area under the dose-response curve (AUC) MKL-2 Replicate 2” value (MKL-2 cells (VP-MCC); follow-up screen, MKL-2, replicate 2) was 463.9 and the “Area under the dose-response curve (AUC) MKL-2 Replicate 3” value (MKL-2 cells (VP-MCC); follow-up screen, MKL-2, replicate 3) was 462.5. For the same compound, the MKL1_AUC (MKL-1 cells (VP-MCC); NPC library, qHTS dose-response AUC, MKL1) was 166.857, the MKL1_AUC (MKL-1 cells (VP-MCC); area under the dose-response curve, MKL-1 cells, AUC<450 = reduced viability) was 166.857 and the “Area under the dose-response curve (AUC) MKL-1 Replicate 1” value (MKL-1 cells (VP-MCC); follow-up screen, MKL-1, replicate 1) was 478.5. For the same compound, the “Area under the dose-response curve (AUC) MKL-1 Replicate 2” value (MKL-1 cells (VP-MCC); follow-up screen, MKL-1, replicate 2) was 458.4, the “Area under the dose-response curve (AUC) MKL-1 Replicate 3” value (MKL-1 cells (VP-MCC); follow-up screen, MKL-1, replicate 3) was 486.1 and the Control-MCC ([5]; NPC library, therapeutic window: Control avg AUC minus MCC avg AUC) was 161.551.
